Data: US7098336B2, “FXR NR1H4 nuclear receptor binding compounds” (Phenex Pharmaceuticals AG, priority 2001, dated 2006)
Read-outs that look alike come from different tables or passages of the source.

Key:
human FXR alpha (NR1H4) [1] = target: T1, human FXR alpha (NR1H4) (Homo sapiens, UniProt Q96RI1); test: In vitro LANCE TR-FRET screening for FXR binding to coactivator TIF2; format: biochemical
T1 sequence (Q96RI1 1-472 isoform Q96RI1-2): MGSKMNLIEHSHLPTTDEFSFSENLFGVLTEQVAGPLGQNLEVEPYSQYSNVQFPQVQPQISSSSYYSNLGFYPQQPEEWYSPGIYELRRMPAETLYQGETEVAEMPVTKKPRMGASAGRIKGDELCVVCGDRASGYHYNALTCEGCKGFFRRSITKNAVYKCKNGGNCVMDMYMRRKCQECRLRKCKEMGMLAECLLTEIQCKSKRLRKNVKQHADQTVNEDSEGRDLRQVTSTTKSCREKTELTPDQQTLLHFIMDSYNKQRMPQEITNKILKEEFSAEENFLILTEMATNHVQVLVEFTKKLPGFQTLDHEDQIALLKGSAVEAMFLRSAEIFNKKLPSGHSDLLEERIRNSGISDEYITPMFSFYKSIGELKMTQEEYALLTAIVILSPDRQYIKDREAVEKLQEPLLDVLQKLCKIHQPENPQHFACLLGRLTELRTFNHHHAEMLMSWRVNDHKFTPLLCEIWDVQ
Excerpt: For screening purposes a fragment of the open reading frame of human FXR alpha (NR1H4-(Acc. No: AF384555)) encoding aminoacids 187–472 was amplified by standard RT PCR procedures (see figures; SEQ ID NO. 1 and 2). Starting material was total RNA derived from human liver. The resulting cDNA obtained after reverse transcription was subsequently cloned using the Gateway™ recombination technology (Invitrogen, USA) into the expression plasmid pDest15 (Invitrogen, USA). This construct was used to express a recombinant GST-FXR fusion protein in E. coli (BL21 strain). A pDEST 17 derivative clone harboring an additional sequence encoding amino acids 548–878 of human TIF2 (Acc. No: XM—011633 RefSeq) was constructed using Gateway™ recombination technology (Invitrogen, USA) in order to obtain a construct which was used to express recombinant His-tagged TIF2 fragment could be expressed in E. coli. […]
For screening of compound libraries as provided for by the methods shown below in the examples for substances which influence the FXR/Tif 2 interaction, the Perkin Elmer LANCE technology was applied. […] For ease of handling and reduction of background from compound fluorescence LANCE technology makes use of generic fluorophore labels and time resoved detection (for detailed description see Hemmilä I, Blomberg K and Hurskainen P, Time-resolved resonance energy transfer (TR-FRET) principle in LANCE, Abstract of Papers Presented at the 3 rd Annual Conference of the Society for Biomolecular Screening, September, California (1997). […]
The LANCE signal was detected by a Perkin Elmer VICTOR2V™ Multilabel Counter applying the detection parameters listed in Table 1 below. […] For every batch of recombinant proteins amount of proteins and labeling reagents giving the most sensitive detection of hits was determined individually by analysis of dose response curves for chenodeoxycholic acid.

human FXR alpha (NR1H4) [2] = target: T1, human FXR alpha (NR1H4); test: as above; format: biochemical; parameters: EC50 AVG; other: relative to CDCA control agonist; fused on or other part: GST at the N-terminus (pDest15); settings: for Emax: read-out: EFFIC AVG (average efficacy, % activity relative to CDCA control agonist)
Excerpt: For screening purposes a fragment of the open reading frame of human FXR alpha (NR1H4-(Acc. No: AF384555)) encoding aminoacids 187–472 was amplified by standard RT PCR procedures (see figures; SEQ ID NO. 1 and 2). Starting material was total RNA derived from human liver. The resulting cDNA obtained after reverse transcription was subsequently cloned using the Gateway™ recombination technology (Invitrogen, USA) into the expression plasmid pDest15 (Invitrogen, USA). This construct was used to express a recombinant GST-FXR fusion protein in E. coli (BL21 strain). A pDEST 17 derivative clone harboring an additional sequence encoding amino acids 548–878 of human TIF2 (Acc. No: XM—011633 RefSeq) was constructed using Gateway™ recombination technology (Invitrogen, USA) in order to obtain a construct which was used to express recombinant His-tagged TIF2 fragment could be expressed in E. coli. For E. coli expression of both constructs, plasmid DNA was transformed into chemically competent E. coli BL21 (Invitrogen, USA) and cells were grown to an OD600 of 0.4–0.7 before expression was induced by addition of 0.5 mM IPTG according instructions of the manufacturer (Invitrogen). After induction for 8 hours at 30° C. cells were harvested by centrifugation for 10 minutes at 5000×g. Fusion proteins were affinity purified using Glutathion sepharose (Pharmacia) or Ni-NTA Agarose (QIAGEN) according to the instructions of the respective manufacturer. Recombinant proteins were dialyzed against 20 mM Tris/HCL pH 7.9; 60 mM KCl; 5 mM MgCl2; 1 mM DTT, 0.2 mM PMSF; 10% glycerol. The TIF2 fragment was subsequently biotinylated by addition of 40–120 μl of a Biotinamidocaproate N-Hydroxysuccinimide-ester (Sigma) solution (20 mg/ml in DMSO). Overhead rotating samples were incubated for 2 hours at room temperature. Unincorporated label was then separated using G25 Gel filtration chromatography (Pharmacia Biotech, Sweden). Protein containing fractions from the column were pooled and tested for activity in the assay as described below.
For screening of compound libraries as provided for by the methods shown below in the examples for substances which influence the FXR/Tif 2 interaction, the Perkin Elmer LANCE technology was applied. This method relies on the binding dependent energy transfer from a donor to an acceptor fluorophore attached to the binding partners of interest. For ease of handling and reduction of background from compound fluorescence LANCE technology makes use of generic fluorophore labels and time resoved detection (for detailed description see Hemmilä I, Blomberg K and Hurskainen P, Time-resolved resonance energy transfer (TR-FRET) principle in LANCE, Abstract of Papers Presented at the 3 rd Annual Conference of the Society for Biomolecular Screening, September, California (1997).
For screening, 20–200 ng of biotinylated Tif 2 fragment and 10–200 ng of GST-FXR fragment were combined with 0.5–2 nM LANCE Eu-(W1024) labelled anti-GST antibody (Perkin Elmer) and 0.5–2 μg of Highly fluorescent APC-labelled streptavidin (Perkin Elmer) in the presence of 50 μM of individual compounds to be screened in a total volume of 25 μl of 20 mM Tris/HCl pH 7.9; 60 mM KCl; 5 mM MgCl2; 160 ng/μl BSA. DMSO content of the samples was kept below 4%. Samples were incubated for a minimum of 60 minutes in the dark at room temperature in FIA-Plates black 384 well med. binding (Greiner).
The LANCE signal was detected by a Perkin Elmer VICTOR2V™ Multilabel Counter applying the detection parameters listed in Table 1 below. The results were visualized by plotting the ratio between the emitted light at 665 nm and at 615 nm. For every batch of recombinant proteins amount of proteins and labeling reagents giving the most sensitive detection of hits was determined individually by analysis of dose response curves for chenodeoxycholic acid.

full length human FXR = target: T2, full length human FXR (Homo sapiens, UniProt Q96RI1); test: Cellular gene reporter assay in stable HEK293-FXR reporter cell line (luciferase); format: cell-based; settings: HEK293-FXR reporter cells, 16 hours incubation, FIG. 3
T2 construct: expressed in transfected cells; host or cells: HEK293, stably transfected with pTRexDest30-hFXR, pTRexDest30-hRXR and pGL2promoter-FXRRE
T2 sequence (Q96RI1 1-472 isoform Q96RI1-2): T1 sequence (Q96RI1 1-472 isoform Q96RI1-2)
T2 sequence (P19793 1-462 partner): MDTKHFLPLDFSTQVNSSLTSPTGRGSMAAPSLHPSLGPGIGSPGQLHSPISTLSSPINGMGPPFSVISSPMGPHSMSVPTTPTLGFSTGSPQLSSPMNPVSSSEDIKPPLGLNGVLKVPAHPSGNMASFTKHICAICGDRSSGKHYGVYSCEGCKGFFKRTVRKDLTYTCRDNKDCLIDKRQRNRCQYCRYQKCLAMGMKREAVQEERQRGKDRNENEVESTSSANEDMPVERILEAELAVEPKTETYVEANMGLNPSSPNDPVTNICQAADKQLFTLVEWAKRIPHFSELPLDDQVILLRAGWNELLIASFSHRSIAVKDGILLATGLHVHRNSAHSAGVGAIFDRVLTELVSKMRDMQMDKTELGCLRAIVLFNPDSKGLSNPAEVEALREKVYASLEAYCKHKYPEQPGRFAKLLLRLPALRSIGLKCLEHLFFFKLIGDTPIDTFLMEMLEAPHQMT
Excerpt: This example illustrates that a compound according to the invention can mediate transactivation of FXR mediated transcription in a HEK293 reporter cell line. Experiments shown were done with MOLSTRUCTURE LN 6691 (see structural formula below).
Stable HEK293-FXR reporter cell lines were generated by stably transfecting with the pTRexDest30 (Invitrogen) derivatives pTRexDest30-hFXR, pTRexDest30-hRXR and the pGL2promoter (Promega) derivative pGL2promoter-FXRRE. The full length human FXR (accession U68233) and the full length human RXRα (accession P19793) were cloned into the pTRexDest30 applying the manufacturer protocols for the Gateway™ system (Invitrogen).
The FXR response elements were (upper case and underlined) 5′-cccaGGGTGAaTAACCTcggggctctgtccctccaatcccaGGGTGAaTAACCTcggg 3′ (SEQ ID NO. 5) was created from the human IBAB-P promoter (Grober et al 1999, JBC 274, pp. 29749–29754) and integrated into the reporter plasmid pGL2promoter (Promega) according to standard methods known to those skilled in the art. […] Luciferase reporter activity were determined in triplicates from extracts of cells after incubating cells in culture medium (DMEM [Gibco-BRL]+10% FCS [PAA laboratories]) for 16 hours (5% CO2, 37° C.) containing 0.5% DMSO (control) or 0.5% DMSO with increasing concentrations of LN6691 (FIG. 3).

[3] = established according to Example 1 (FRET), unit inferred, b76 prints 0.16 μM for the same value, read-out: EC50 AVG

SMILES | active as agonists of the NR1H4 human nuclear receptor (human FXR alpha (NR1H4) [1]) | EC50 (human FXR alpha (NR1H4) [2]; [3]) [nM] | Emax (human FXR alpha (NR1H4) [2]) [%] | also measured
O=C(O)C1CCC(CNc2nc(-c3ccccc3O)cc(-c3ccccc3F)n2)CC1 (stereo not shown) [formula (5)] | active as agonists |  |  | 
O=C(O)C1CCC(CNc2nc(-c3cccs3)cc(-c3ccccc3O)n2)CC1 (stereo not shown) [LN0000006692] |  | 1660 | 111 | 
O=C(O)[C@H]1CC[C@H](CNc2nc(-c3cccs3)cc(-c3ccccc3O)n2)CC1 [formula (7)] | active as agonists |  |  | 
COc1ccccc1-c1cc(-c2cc(C)ccc2O)nc(NC[C@H]2CC[C@H](C(=O)O)CC2)n1 [formula (6)] | active as agonists |  |  | 
COc1ccccc1-c1cc(-c2ccccc2O)nc(NCC2CCC(C(=O)O)CC2)n1 (stereo not shown) [LN0000006691] |  |  | 125 | relative efficacy compared to GW4064 as control compound (full length human FXR): about 110%; EC50 (human FXR alpha (NR1H4) [2]; read-out: EC50 at FXR (half-maximal effective concentration)): 160 nM
COc1ccccc1-c1cc(-c2cc(C)ccc2O)nc(NCC2CCC(C(=O)O)CC2)n1 (stereo not shown) [LN0000002683] |  | 1090 | 134 | 
O=C(O)C1CCC(CNc2nc(-c3ccccc3O)cc(-c3ccccc3F)n2)CC1 (stereo not shown) [LN0000007265] |  | 530 | 91 | 
COc1ccccc1-c1cc(-c2ccccc2O)nc(NC[C@H]2CC[C@H](C(=O)O)CC2)n1 [LN0000006691] |  |  |  | EC50 (full length human FXR): 1300 nM
